The values below come from patent publication US20140154337A1, “ANTIMICROBIAL AGENTS AND METHODS FOR USE THEREOF IN THE ABATEMENT OF FOOD BORNE PATHOGENIC ORGANISMS” (priority 2011, published 2014).

Structures are written as SMILES.

The assay deals with Escherichia coli ATCC strain number 8739. The assay is described as follows: Enteral antimicrobial laboratory evaluation: inoculated tryptic soy agar plates sprayed with test mixture, enumerated after three days. The class given is cell-based. Particulars: TSA plates sprayed, phosphoric acid added to pH approximately 3.2 simulating mammalian stomach.

Experimental: In particular, testing was conducted as follows:
Six (6) identical conventional tryptic soy agar (“TSA”) plates were inoculated with Escherichia coli of the ATCC strain number 8739, which, as previously discussed, is a feces derived strain typical of that expected in the applications of the present invention.
The inoculated plates were then separated into three (3) groups of two (2) plates each, which groups were treated as follows: • a. […] Group III was sprayed with purified water only (in order to establish a negative control for the evaluation).

On to `O=P(O)(O)O` [phosphoric acid solution, phosphoric acid], for which the “growth of Escherichia coli” value was “only a minor reduction in the growth”.
